Common to all, as to assay: NCI tumour cell line growth inhibition, 48 h
The subject of test [1] is A549.
In test [2] the test system is CAKI-1.
Test [3] deals with COLO 205.
Test [4] has as its system DU-145.
In test [5] the test system is HCT-116.
Test [6] relates to K562.
The test system of test [7] is LOX IMVI.
The subject of test [8] is MCF7.
In test [9] the test system is MDA-MB-231.
The test system of test [10] is Malme-3M.
For test [11], the system named is OVCAR-3.
For test [12], the system named is SF-268.
In test [13] the test system is SF-539.
Test [14] relates to SK-MEL-28.
The subject of test [15] is SK-MEL-5.
In test [16] the test system is SK-OV-3.
The test system of test [17] is SN12C.
For test [18], the system named is SNB-19.
Test [19] deals with T47D.
Test [20] has as its system DMS-114.

SMILES strings stand for the structures.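 Method: 48-hour compound exposure of cells in 96-well plates, five concentrations, linear interpolation of endpoints. GI50 marks 50% less growth.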 Calls of active or inactive are those of the source. Rule as the data show it: active = GI50 up to about 1.1 µM and inactive = higher. Where a SMILES comes first, the peptide text is derived from it. The star is where a group is joined. Cbz = O=C(OCc1ccccc1)*; Boc = CC(C)(C)OC(=O)*; tBu = CC(C)(C)*

Turning to `COc1oc(C(=O)NC2CCCCC2)c(-c2ccc(Cl)cc2)c1S(=O)(=O)c1ccccc1`, the GI50 in [1] was 23.7 µM (inactive); in [2], 3.37 µM (inactive); in [3] it was 15.5 µM (inactive); in test [4], 18.3 µM (inactive); in test [5] it was 33.3 µM (inactive); in [6] it was 12.3 µM (inactive). For the same compound, the GI50 was 2.78 µM (inactive) in test [7]; 36.1 µM (inactive) in test [8]; 9.51 µM (inactive) in test [9]; 11.7 µM (inactive) in test [10]; 1.89 µM (inactive) in [11]; 3.46 µM (inactive) in [12]. Besides, the GI50 in test [13] is 6.58 µM (inactive); in [14], 49.3 µM (inactive); in test [15], 28.1 µM (inactive); in test [16], 25.6 µM (inactive); in [17], 20.1 µM (inactive); in test [18] it was 99.3 µM (inactive). Moreover, in test [19], the GI50 is 37.7 µM (inactive).
On to `N=C(c1ccccc1)N1CCCCC1`, for which the GI50 in [1], in test [2], in test [3], in test [20], in test [5] and in test [7] was > 100 µM (inactive) each time. Besides, the GI50 is 49 µM (inactive) in test [10]; > 100 µM (inactive) in test [12]; > 100 µM (inactive) in [13]; > 100 µM (inactive) in test [14]; > 100 µM (inactive) in test [17]; > 100 µM (inactive) in test [18].
In the case of `CCOC(=O)/C=C(/C(=O)OCC)n1ccc(N)nc1=O`, the GI50 was > 100 µM (inactive) in test [1]; 37 µM (inactive) in test [2]; 66.1 µM (inactive) in [3]; > 100 µM (inactive) in test [4]; > 100 µM (inactive) in [5]; > 100 µM (inactive) in [6]. Besides, the GI50 in test [7] was 97.7 µM (inactive); in [8], > 100 µM (inactive); in test [9], > 100 µM (inactive); in [10] it was 44.6 µM (inactive); in test [11] it was > 100 µM (inactive); in test [12], > 100 µM (inactive). Further, the GI50 in [13], in [14], in [15], in [16], in [17] and in test [18] was > 100 µM (inactive) each time. Besides, in test [19], the GI50 was > 100 µM (inactive).
On to `CC(=O)OC1COC(n2c(-c3ccc(Cl)cc3)cc(-c3ccccc3)c(C#N)c2=S)C(OC(C)=O)C1OC(C)=O` (configuration not stated), for which the GI50 was 13.4 µM (inactive) in [1]; 19.7 µM (inactive) in test [2]; 18.3 µM (inactive) in [3]; 13.9 µM (inactive) in test [4]; 5.52 µM (inactive) in test [5]; 12.2 µM (inactive) in [6]. The GI50 in test [7] is 3.58 µM (inactive); in test [8], 8.43 µM (inactive); in [9] it was 2.88 µM (inactive); in test [10] it was 49.9 µM (inactive); in test [11], 6.38 µM (inactive); in [12], 9.44 µM (inactive). For the same compound, the GI50 is 4.42 µM (inactive) in test [13]; > 28.9 µM (inactive) in [14]; 8.51 µM (inactive) in test [15]; 28.2 µM (inactive) in [16]; 9.25 µM (inactive) in test [17]; 31 µM (inactive) in [18]. Further, the GI50 in [19] was 14.1 µM (inactive).
As for `Nc1nc(-c2ccco2)cc(-c2ccco2)n1`, the GI50 in test [1], in test [3], in test [20], in test [5], in test [6] and in [7] was > 100 µM (inactive) throughout. The GI50 in [10], in test [11], in test [12], in test [13], in [14] and in [15] was > 100 µM (inactive) in each case. Further, the GI50 in test [17] was > 100 µM (inactive); in test [18] it was 41.8 µM (inactive).
On to `COC(=O)C(Cc1ccc2c(c1)CCCC2)Cc1cc2c(cc1C(O)OC)CCC2` (configuration not stated), for which the GI50 was 41.5 µM (inactive) in test [1]; > 100 µM (inactive) in test [2]; 37.7 µM (inactive) in test [3]; > 100 µM (inactive) in test [4]; 39.6 µM (inactive) in [5]; 35.1 µM (inactive) in test [6]. The GI50 in test [7] was 30.4 µM (inactive); in test [8] it was 29.4 µM (inactive); in test [9], > 100 µM (inactive); in test [10] it was 38.1 µM (inactive); in test [11], 89.7 µM (inactive); in test [12] it was 49.9 µM (inactive). For the same compound, the GI50 in [13] was 39.1 µM (inactive); in test [14] it was 55 µM (inactive); in test [15] it was 33.4 µM (inactive); in test [16] it was > 100 µM (inactive); in test [17], 96.2 µM (inactive); in test [18], > 100 µM (inactive). Moreover, in test [19], the GI50 is 29.3 µM (inactive).
In the case of `O=[N+]([O-])/C(Cl)=C(\Nc1ccccc1)C(Cl)=C(Cl)Cl`, the GI50 is 32.7 µM (inactive) in test [1]; 48.3 µM (inactive) in test [2]; 19.5 µM (inactive) in test [3]; 36.8 µM (inactive) in test [4]; 36.1 µM (inactive) in [5]; 25 µM (inactive) in test [6]. The GI50 is 32.9 µM (inactive) in test [7]; 14.3 µM (inactive) in [8]; 34.4 µM (inactive) in test [9]; 18 µM (inactive) in test [10]; 18.2 µM (inactive) in test [11]; 32.1 µM (inactive) in [12]. For the same compound, the GI50 in test [13] was 27.9 µM (inactive); in test [14], 36.8 µM (inactive); in test [15] it was 23.7 µM (inactive); in test [16], 43.7 µM (inactive); in test [17] it was 33.9 µM (inactive); in test [18] it was 33.5 µM (inactive). Moreover, the GI50 in test [19] is 29.1 µM (inactive).
Consider `COC(=O)[C@H](Cc1ccccc1)NC(=O)c1ccc(CNC(=O)/C=C/c2csc(-c3ccccc3)n2)cc1`, for which the GI50 in [1] is 16.1 µM (inactive); in test [2] it was 7.82 µM (inactive); in test [3], 7.13 µM (inactive); in test [4], 7.03 µM (inactive); in [5], 5.04 µM (inactive); in [6], 1.93 µM (inactive). For the same compound, the GI50 in test [7] is 4.91 µM (inactive); in [8] it was 4.5 µM (inactive); in test [9], 10.9 µM (inactive); in test [10] it was 3.24 µM (inactive); in test [11], 5.33 µM (inactive); in test [12], 7.6 µM (inactive). For the same compound, the GI50 in test [13] is 2.04 µM (inactive); in [14], 3.18 µM (inactive); in test [15], 4.22 µM (inactive); in test [16] it was 23.7 µM (inactive); in test [17] it was 8.91 µM (inactive); in test [18] it was 11.8 µM (inactive). In test [19], the GI50 was 2.72 µM (inactive).
With `Oc1c2c(nc3cc4c(cc13)OCO4)-c1ccccc1CC2`, the GI50 in test [1], in [3], in test [20], in [5], in test [6] and in test [7] was > 100 µM (inactive) throughout. The GI50 in test [10], in test [11], in test [12], in [13], in test [14] and in test [15] was > 100 µM (inactive) in each case. For the same compound, the GI50 in test [17] and in test [18] was > 100 µM (inactive) throughout.
Consider `C=C(C)[C@@H]1CC[C@]2(C(=O)OC3OC(COC4OC(CO)C(OC5OC(C)C(O)C(O)C5O)C(O)C4O)C(O)C(O)C3O)CC[C@]3(C)[C@H](CC[C@@H]4[C@@]5(C)CC[C@H](O)[C@@](C)(CO)[C@@H]5CC[C@]43C)[C@@H]12` (some centres not stated), for which the GI50 in [1] is 0.986 µM (active); in [2], 3.4 µM (inactive); in test [3] it was 1.63 µM (inactive); in [4], 4.8 µM (inactive); in test [5], 2.18 µM (inactive); in [6], 0.802 µM (active). Moreover, the GI50 is 2.58 µM (inactive) in [7]; 3.02 µM (inactive) in [8]; 3.56 µM (inactive) in test [9]; 3.78 µM (inactive) in test [10]; 1.84 µM (inactive) in test [11]; 2.93 µM (inactive) in [12]. Also, the GI50 was 2.58 µM (inactive) in test [13]; 5.79 µM (inactive) in test [14]; 2.84 µM (inactive) in test [15]; 3.24 µM (inactive) in test [16]; 3.5 µM (inactive) in [17]; 2.72 µM (inactive) in [18]. Further, the GI50 in test [19] was 3.4 µM (inactive).
As for `CC(OC(C)(C)C)C(NC(=O)C(CCCCNC(=O)OC(C)(C)C)NC(=O)C(Cc1c[nH]c2ccccc12)NC(=O)C(Cc1ccccc1)NC(=O)OCc1ccccc1)C(=O)NC(Cc1ccccc1)C(=O)O` (configuration not stated) (Cbz-FWK(Boc)T(tBu)F-OH; configuration not given here), the GI50 was > 100 µM (inactive) in test [1]; > 100 µM (inactive) in test [2]; 36.9 µM (inactive) in test [3]; 61.1 µM (inactive) in test [4]; 36.6 µM (inactive) in test [5]; 28.8 µM (inactive) in [6]. Besides, the GI50 in test [7] is 29.4 µM (inactive); in [8], 31.1 µM (inactive); in test [9], 40.2 µM (inactive); in [10], > 100 µM (inactive); in [11], 32.1 µM (inactive); in test [12] it was 45.7 µM (inactive). The GI50 is 31.8 µM (inactive) in test [13]; 57.8 µM (inactive) in test [14]; 1.66 µM (inactive) in test [15]; 39.5 µM (inactive) in test [16]; 25.8 µM (inactive) in test [17]; 37.7 µM (inactive) in test [18]. In addition, the GI50 in [19] is 28.4 µM (inactive).

The values are drawn from ChEMBL document CHEMBL1201862, “PubChem BioAssay data set” (2004).
